According to patent US7358248B2, “Substituted amino carboxylic acids” (The Institute for Pharmaceutical Discovery LLC, priority 2003, dated 2008):

Compared with `COC(=O)N[C@@H](CSCc1ccc(-c2ccc(-n3ccc4ccccc43)cc2)cc1)C(=O)O` [Example 12, (2R)-3-(4′-Indol-1-ylbiphen-4-ylmethylsulfanyl)-2-methoxycarbonylamino-propionic acid], `CC(C)COC(=O)N[C@@H](CSCc1ccc(-c2ccc(-n3ccc4ccccc43)cc2)cc1)C(=O)O` [Example 13, (2R)-3-(4′-Indol-1-ylbiphen-4-ylmethylsulfanyl)-2-isobutoxycarbonylamino-propionic acid] is higher in melting point: 81 to 82 °C for the first, 85 to 86 °C for the second.

First: O=C(Cc1ccccc1[N+](=O)[O-])N[C@@H](CSCc1ccc(-c2ccc(-c3c(Cc4ccccc4)oc4ccccc34)cc2)cc1)C(=O)O [Example 78, (2R)-2-(2-Nitrophenylacetylamino)-3-[4′-(2-benzylbenzofuran-3-yl)biphen-4-ylmethylsulfanyl]-propionic acid]
Second: O=C(Cc1cccc([N+](=O)[O-])c1)N[C@@H](CSCc1ccc(-c2ccc(-c3c(Cc4ccccc4)oc4ccccc34)cc2)cc1)C(=O)O [Example 75, (2R)-2-(3-Nitrophenylacetylamino)-3-[4′-(2-benzylbenzofuran-3-yl)biphen-4-ylmethylsulfanyl]-propionic acid]
The melting point of the first is higher: 189 to 191 °C for the first, 108 to 109 °C for the second.

First: CC(C)(C)OC(=O)N[C@@H](CSCc1ccc(-c2ccc(-c3cccc4c3sc3ccccc34)cc2)cc1)C(=O)O [Example 107, 2-tert-Butoxycarbonylamino-3-(4′-dibenzothiophen-4-yl-biphenyl-4-ylmethyl-sufanyl)-propionic acid]
Second: CC(C)(C)OC(=O)N[C@@H](CSCc1ccc(-c2ccc(-c3c(Cc4ccccc4)oc4ccccc34)cc2)cc1)C(=O)O [Example 66, (2R)-3-[4′-(2-benzylbenzofuran-3-yl)biphen-4-ylmethylsulfanyl]-2-tert-butoxy-carbonylamino-propionic acid]
The melting point of the first is higher: 108 to 110 °C for the first, 89 to 90 °C for the second.

Compared with `O=C(Cc1ccc(O)cc1)N[C@@H](CSCc1ccc(-c2ccc(-c3c(Cc4ccccc4)oc4ccccc34)cc2)cc1)C(=O)O` [Example 79, (2R)-2-(4-Hydroxyphenylacetylamino)-3-[4′-(2-benzylbenzofuran-3-yl)biphen-4-ylmethylsulfanyl]-propionic acid], `O=C(Cc1ccc(F)cc1)N[C@@H](CSCc1ccc(-c2ccc(-c3c(Cc4ccccc4)oc4ccccc34)cc2)cc1)C(=O)O` [Example 74, (2R)-2-(4-Fluorophenylacetylamino)-3-[4′-(2-benzylbenzofuran-3-yl)biphen-4-ylmethylsulfanyl]-propionic acid] is lower in melting point: 148 to 149 °C for the first, 82 to 84 °C for the second.

First: Nc1ccc(CC(=O)N[C@@H](CSCc2ccc(-c3ccc(-c4c(Cc5ccccc5)oc5ccccc45)cc3)cc2)C(=O)O)cc1 [Example 82, (2R)-2-(4-Aminophenylacetylamino)-3-[4′-(2-benzylbenzofuran-3-yl)biphen-4-ylmethylsulfanyl]-propionic acid]
Second: COc1ccc(CC(=O)N[C@@H](CSCc2ccc(-c3ccc(-c4c(Cc5ccccc5)oc5ccccc45)cc3)cc2)C(=O)O)cc1 [Example 81, (2R)-2-(4-Methoxyphenylacetylamino)-3-[4′-(2-benzylbenzofuran-3-yl)biphen-4-ylmethylsulfanyl]-propionic acid]
The melting point of the first is higher: 170 to 172 °C for the first, 59 to 60 °C for the second.

First: CC(C)(C)OC(=O)N[C@@H](CS(=O)(=O)Cc1ccc(-c2ccc(-c3c(Cc4ccccc4)oc4ccccc34)cc2)cc1)C(=O)O [Example 68, (2R)-3-[4′-(2-benzylbenzofuran-3-yl)biphen-4-ylmethylsulfonyl]-2-tert-butoxycarbonylaminopropionic acid]
Second: CC(C)(C)OC(=O)N[C@@H](C[S+]([O-])Cc1ccc(-c2ccc(-c3c(Cc4ccccc4)oc4ccccc34)cc2)cc1)C(=O)O (stereo partly drawn) [Example 67, (2R,4RS)-3-[4′-(2-benzylbenzofuran-3-yl)biphen-4-ylmethylsulfinyl]-2-tert-butoxycarbonylaminopropionic acid]
The melting point of the first is higher: 202 to 203 °C for the first, 195 to 196 °C for the second.

Compared with `O=C(Cc1ccccc1)N[C@@H](CSCc1ccc(-c2ccc(-c3c(Cc4ccccc4)oc4ccccc34)cc2)cc1)C(=O)O` [Example 71, (2R)-2-Phenylacetylamino-3-[4′-(2-benzylbenzofuran-3-yl)biphen-4-ylmethyl-sulfanyl]-propionic acid], `O=C(N[C@@H](CSCc1ccc(-c2ccc(-c3c(Cc4ccccc4)oc4ccccc34)cc2)cc1)C(=O)O)c1ccccc1` [Example 70, (2R)-2-Benzoylamino-3-[4′-(2-benzylbenzofuran-3-yl)biphen-4-ylmethylsulfanyl]-propionic acid] is higher in melting point: 77 to 78 °C for the first, 138 to 139 °C for the second.

Compared with `O=C(Cc1ccc([N+](=O)[O-])cc1)N[C@@H](CSCc1ccc(-c2ccc(-c3c(Cc4ccccc4)oc4ccccc34)cc2)cc1)C(=O)O` [Example 77, (2R)-2-(4-Nitrophenylacetylamino)-3-[4′-(2-benzylbenzofuran-3-yl)biphen-4-ylmethylsulfanyl]-propionic acid], `CC(=O)N[C@@H](CSCc1ccc(-c2ccc(-c3c(Cc4ccccc4)oc4ccccc34)cc2)cc1)C(=O)O` [Example 80, (2R)-2-Acetylamino-3-[4′-(2-benzylbenzofuran-3-yl)biphen-4-ylmethylsulfanyl]-propionic acid] is higher in melting point: 102 to 103 °C for the first, 131 to 132 °C for the second.

First: O=C(Cc1cccc([N+](=O)[O-])c1)N[C@@H](CSCc1ccc(-c2ccc(-n3ccc4ccccc43)cc2)cc1)C(=O)O [Example 10, (2R)-3-(4′-Indol-1-ylbiphen-4-ylmethylsulfanyl)-2-[2-(3-nitrophenyl)acetylamino]-propionic acid]
Second: O=C(Cc1cccc([N+](=O)[O-])c1)N[C@@H](C[S+]([O-])Cc1ccc(-c2ccc(-n3ccc4ccccc43)cc2)cc1)C(=O)O (stereo partly drawn) [Example 17, (2R)-3-(4′-Indol-1-ylbiphen-4-ylmethylsulfinyl)-2-[2-(3-nitrophenyl)acetylamino]-propionic acid]
The melting point of the first is lower: 94 °C for the first, 197 to 198 °C for the second.

First: O=C(N[C@@H](CSCc1ccc(-c2ccc(-c3c(Cc4ccccc4)oc4ccccc34)cc2)cc1)C(=O)O)c1ccc2nc[nH]c2c1 [Example 73]
Second: CC(=O)NC(CSCc1ccc(-c2nc(-c3ccccc3)cc(-c3ccccc3)n2)cc1)C(=O)O (stereo not drawn) [Example 95, 2-Acetylamino-3-[4-(4,6-diphenyl-pyrimidin-2-yl)-benzylsulfanyl]-propionic acid]
The melting point of the first is lower: 149 to 150 °C for the first, 223 to 226 °C for the second.

Compared with `CC(C)(C)OC(=O)N[C@@H](C[S+]([O-])Cc1ccc(-c2ccc(-n3ccc4ccccc43)cc2)cc1)C(=O)O` (stereo partly drawn) [Example 7, (2R)-tert-Butoxycarbonylamino-3-(4′-indol-1-ylbiphen-4-ylmethylsulfinyl)-propionic acid], `CC(C)(C)OC(=O)N[C@@H](CSCc1ccc(-c2ccc(-c3ccc4c(c3)OCO4)cc2)cc1)C(=O)O` (stereo in doubt) [Example 101, 3-(4′-Benzo[1,3]dioxol-5-yl-biphenyl-4-ylmethylsulfanyl)-2-tert-butoxycarbonylamino-propionic acid] is higher in melting point: 169 to 170 °C for the first, 178 to 180 °C for the second.

For `O=C(O)[C@H](CSCc1ccc(-c2ccc(-n3ccc4ccccc43)cc2)cc1)NC(=O)N1CCOCC1` [Example 14, (2R)-3-(4′-Indol-1-ylbiphen-4-ylmethylsulfanyl)-2-[(morpholine-4-carbonyl)-amino]-propionic acid], the melting point was 195 °C (dec.).
With `CC(C)(C)OC(=O)NC(CSCc1ccc(-c2nc(-c3ccccc3)cc(-c3ccccc3)n2)cc1)C(=O)O` (stereo not drawn) [Example 93, 2-tert-Butoxy carbonylamino-3-[4-(4,6-diphenylpyrimidin-2-yl)-benzylsulfanyl]propionic acid] the melting point was 250 °C (dec.).
